Reference: the RepoRT retention time repository (doi:10.1021/acs.analchem.2c02893)

Assay: RP, Thermo Scientific Acclaim RSLC 120 C18, 100 × 2.1 mm, 2.2 µm, 30 °C, 0.2 mL/min, estimated dead time 1.1 min; A: 90% water + 10% methanol + 0.01% formic acid + 5 mM ammonium formate, pH 3.61; B: methanol + 0.01% formic acid + 5 mM ammonium formate, pH 3.61; gradient (min/%B) 0/1 1/1 2/39 13/99.9 15/99.9 15.1/1 20.1/1
Details: stereoisomer not certain

SMILES	LC retention time [min]
O=C1CN=C(c2ccccc2)c2cc(Cl)ccc2N1CC1CC1 [Prazepam]	10.6
CC(C)CC(CN)CC(=O)O (stereo not given) [Pregabalin]	3.88
CC(Cc1ccccc1)NCCC(c1ccccc1)c1ccccc1 (stereo not given) [Prenylamine]	8.89
CCCOCCN(C(=O)CCl)c1c(CC)cccc1CC [Pretilachlor]	11.8
CCCN(CCOc1c(Cl)cc(Cl)cc1Cl)C(=O)n1ccnc1 [Prochloraz]	11.2
CC12CC1(C)C(=O)N(c1cc(Cl)cc(Cl)c1)C2=O (stereo not given) [Procymidone]	10.2
CCCSP(=O)(OCC)Oc1ccc(Br)cc1Cl (stereo not given) [Profenophos]	12
CCCC(Cc1ccccc1)N1CCCC1 (stereo not given) [Prolintane]	5.56
CNC(=O)Oc1cc(C)cc(C(C)C)c1 [Promecarb]	9.51
COc1nc(NC(C)C)nc(NC(C)C)n1 [Prometon]	8.86
CSc1nc(NC(C)C)nc(NC(C)C)n1 [Prometryn]	10.1
CC(C)N(C(=O)CCl)c1ccccc1 [Propachlor]	8.25
CCC(=O)Nc1ccc(Cl)c(Cl)c1 [Propanil]	9.38
CCCOP(=O)(OCCC)Oc1ccc(SC)cc1 [Propaphos]	10.8
CC(C)=NOCCOC(=O)C(C)Oc1ccc(Oc2cnc3cc(Cl)ccc3n2)cc1 (stereo not given) [Propaquizafop]	12.3
C#CCOS(=O)OC1CCCCC1Oc1ccc(C(C)(C)C)cc1 (stereo not given) [Propargite]	12.8
CC(C)Nc1nc(Cl)nc(NC(C)C)n1 [Propazine]	9.16
CCNP(=S)(OC)OC(C)=CC(=O)OC(C)C (stereo not given) [Propetamphos]	9.79
CC(C)OC(=O)Nc1ccccc1 [Propham]	8.11
CCCC1COC(Cn2cncn2)(c2ccc(Cl)cc2Cl)O1 (stereo not given) [Propiconazole]	11
CNC(=O)Oc1ccccc1OC(C)C [Propoxur]	6.94

SMILES	LC retention time [min]
CCCOc1nn(C(=O)NS(=O)(=O)c2ccccc2C(=O)OC)c(=O)n1C [Propoxycarbazone]	5.73
C#CC(C)(C)NC(=O)c1cc(Cl)cc(Cl)c1 [Propyzamide (Pronamide)]	9.69
CCCN(CCC)C(=O)SCc1ccccc1 [Prosulfocarb]	11.9
COc1nc(C)nc(NC(=O)NS(=O)(=O)c2ccccc2CCC(F)(F)F)n1 [Prosulfuron]	8.57
OC(Cc1ccccc1Cl)(Cn1cncn1)C1(Cl)CC1 (stereo not given) [Prothioconazole-desethio]	10.5
OC(Cc1ccccc1Cl)(Cn1[nH]cnc1=S)C1(Cl)CC1 (stereo not given) [Prothioconazole]	11.2
CN(C)CCc1c[nH]c2cccc(O)c12 [Psilocin]	3.29
CC1=NNC(=O)N(N=Cc2cccnc2)C1 [Pymetrozine]	4.01
COC(=O)N(OC)c1ccccc1COc1ccn(-c2ccc(Cl)cc2)n1 [Pyraclostrobin]	11.2
COC1(C)CC(c2ccccc2)c2c(c3ccccc3oc2=O)O1 (stereo not given) [Pyranocoumarin]	11.1
Cc1nnc2n1-c1ccc(Br)cc1C(c1ccccn1)=NC2 [Pyrazolam]	6.27
CCOC(=O)c1cn2nc(OP(=S)(OCC)OCC)cc2nc1C [Pyrazophos]	11.4
C=CC=CCC1=C(C)C(OC(=O)C2C(C=C(C)C(=O)OC)C2(C)C)CC1=O (stereo not given) [Pyrethrin II]	11.7
C=CC=CCC1=C(C)C(OC(=O)C2C(C=C(C)C)C2(C)C)CC1=O (stereo not given) [Pyrethrin I]	12.9
CC=CCC1=C(C)C(OC(=O)C2C(C=C(C)C(=O)OC)C2(C)C)CC1=O (stereo not given) [Pyrethrins: Cinerin II]	11.6
CC=CCC1=C(C)C(OC(=O)C2C(C=C(C)C)C2(C)C)CC1=O (stereo not given) [Pyrethrins: Cinerin I]	12.9
CCC=CCC1=C(C)C(OC(=O)C2C(C=C(C)C(=O)OC)C2(C)C)CC1=O (stereo not given) [Pyrethrins: Jasmolin II]	12.2
CCC=CCC1=C(C)C(OC(=O)C2C(C=C(C)C)C2(C)C)CC1=O (stereo not given) [Pyrethrins: Jasmolin I]	13.3
CC(C)(C)c1ccc(CSc2cnn(C(C)(C)C)c(=O)c2Cl)cc1 [Pyridaben]	13.4
CCOP(=S)(OCC)Oc1ccc(=O)n(-c2ccccc2)n1 [Pyridaphenthion]	9.79
CCCCCCCCSC(=O)Oc1cc(Cl)nnc1-c1ccccc1 [Pyridate]	13.8

Further lines, results first:

LC retention time [min]	SMILES
7.86	CN1CCC(=C2c3ccccc3CCc3sccc32)CC1 [Pizotifen]
3.34	CC(=O)Nc1ccc(OCC(O)CNC(C)C)cc1 (stereo not given) [Practolol]
6.07	CCC[N+]12C(O)C(CC)C3CC1C1N(C)c4ccccc4C14CC2C3C4O (stereo not given) [Prajmaline]
2.64	CCCNC1CCc2nc(N)sc2C1 (stereo not given) [Pramipexole]
8.36	CCC(C)C(=O)OC1CC(O)C=C2C=CC(C)C(CCC(O)CC(O)CC(=O)O)C21 (stereo not given) [Pravastatin]
9.32	O=C(C1CCCCC1)N1CC(=O)N2CCc3ccccc3C2C1 (stereo not given) [Praziquantel]
5.34	COc1cc2nc(N3CCN(C(=O)c4ccco4)CC3)nc(N)c2cc1OC [Prazosin]
8.75	CC1CC2C(C(O)CC3(C)C2CCC3(O)C(=O)CO)C2(C)C=CC(=O)C=C12 (stereo not given) [Prednisolone-Methyl]
7.84	CC12C=CC(=O)C=C1CCC1C2C(O)CC2(C)C1CCC2(O)C(=O)CO (stereo not given) [Prednisolone]
7.85	CC12C=CC(=O)C=C1CCC1C2C(=O)CC2(C)C1CCC2(O)C(=O)CO (stereo not given) [Prednisone]
4.69	CCCNC(C)C(=O)Nc1ccccc1C (stereo not given) [Prilocaine]
6.82	COc1cc(NC(C)CCCN)c2ncccc2c1 (stereo not given) [Primaquine]
5.29	CCC1(c2ccccc2)C(=O)NCNC1=O [Primidone]
9.41	CCCC(C(=O)OCCN(CC)CC)(c1ccccc1)c1ccccc1 [Proadifen]
2.83	CCN(CC)CCNC(=O)c1ccc(N)cc1 [Procainamide]
3.21	CCN(CC)CCOC(=O)c1ccc(N)cc1 [Procaine]
9.89	CN1CCN(CCCN2c3ccccc3Sc3ccc(Cl)cc32)CC1 [Prochlorperazine]
7.8	OC(CCN1CCCC1)(c1ccccc1)C1CCCCC1 (stereo not given) [Procyclidine]
11.2	CC(=O)C1CCC2C3CCC4=CC(=O)CCC4(C)C3CCC12C (stereo not given) [Progesterone]
6.98	CC(C)N=C(N)N=C(N)Nc1ccc(Cl)cc1 [Proguanil]
5.63	CCC(=O)C1C(=O)CC(C(=O)O)CC1=O (stereo not given) [Prohexadione]
8.49	CCC(=O)c1ccc2c(c1)N(CCCN(C)C)c1ccccc1S2 [Promazine-Propionyl]
8.54	CN(C)CC(CN1c2ccccc2Sc2ccccc21)N(C)C (stereo not given) [Promazine-amino]
7.69	CN(C)CCCN1c2ccccc2Sc2ccccc21 [Promazine]

LC retention time [min]	SMILES
7.53	CC(CN1c2ccccc2Sc2ccccc21)N(C)C (stereo not given) [Promethazine]
5.46	CC(C)N(C(=O)CS(=O)(=O)O)c1ccccc1 [Propachlor-ESA]
5.13	CC(C)N(C(=O)C(=O)O)c1ccccc1 [Propachlor-OXA]
7.09	NCC(O)COc1ccccc1C(=O)CCc1ccccc1 (stereo not given) [Propafenone-N-Desmethyl]
7.81	CCCNCC(O)COc1ccccc1C(=O)CCc1ccccc1 (stereo not given) [Propafenone]
3.5	CCCOC(=O)NCCCN(C)C [Propamocarb]
7.35	CC(C)[N+](C)(CCOC(=O)C1c2ccccc2Oc2ccccc21)C(C)C [Propantheline (I+)]
5.96	CC(C)Nc1nc(NC(C)C)[nH]c(=O)n1 [Propazine-2-hydroxy (Prometon-Hydroxy)]
6.24	CCCOc1ccc(C(=O)CCN2CCCCC2)cc1 [Propipocaine]
9.36	CCCOC(C(=O)OC1CCN(C)CC1)(c1ccccc1)c1ccccc1 [Propiverine]
10.5	CCCOc1ccc(S(=O)(=O)N2CCN(CC)CC2)cc1-c1nc(=S)c2c([nH]1)c(CCC)nn2C [Propoxyphenyl Thiohomosidenafil]
8.36	CCCOC(=O)c1ccc(O)cc1 [Propylparaben]
4.51	CCCc1cc(=O)[nH]c(=S)[nH]1 [Propylthiouracil]
7.23	Cc1c(C(C)C)c(=O)n(-c2ccccc2)n1C [Propyphenazone]
9.61	Cc1ccc2c(-c3ccccc3)nc(=O)n(C(C)C)c2c1 [Proquazone]
13.3	CCCOc1nc2ccc(I)cc2c(=O)n1CCC [Proquinazid]
7.21	CN(C)CCCN1c2ccccc2Sc2cccnc21 [Prothipendyl]
6.36	CCCc1cc(C(N)=S)ccn1 [Protionamide]
7.99	CNCCCC1c2ccccc2C=Cc2ccccc21 [Protriptyline]
4.34	CC(O)Cn1cnc2c1c(=O)n(C)c(=O)n2C (stereo not given) [Proxyphylline]
10.9	Cc1nn(C)c(OCC(=O)c2ccccc2)c1C(=O)c1ccc(Cl)cc1Cl [Pyrazoxyfen]
5.86	CN(C)CCN(Cc1ccccc1)c1ccccn1 [Pyribenzamine (Tripelenamine. Azaron)]
12.5	COc1cccc(N(C)C(=S)Oc2cccc(C(C)(C)C)c2)n1 [Pyributicarb]
2.18	Cc1ncc(CO)c(CO)c1O [Pyridoxine]
